Experimental data published in ChEMBL document CHEMBL5465560, “Selectivity Literature for EUbOPEN Chemogenomic Library” (2024).
Changes are numbered by the printed parent chain.

What was measured:
Conditions in all cases: at 1 µM
[1] = target: Receptor-type tyrosine-protein kinase FLT3 (Homo sapiens) (UniProt P36888); experiment: (§1) Selectivity interaction (KinomeScan (DiscoverX)) EUB0000311b FLT3
[2] = tested on: T1, Receptor-type tyrosine-protein kinase FLT3 (Homo sapiens), P36888 [D835V]; experiment: as §1
T1 sequence (whole entry): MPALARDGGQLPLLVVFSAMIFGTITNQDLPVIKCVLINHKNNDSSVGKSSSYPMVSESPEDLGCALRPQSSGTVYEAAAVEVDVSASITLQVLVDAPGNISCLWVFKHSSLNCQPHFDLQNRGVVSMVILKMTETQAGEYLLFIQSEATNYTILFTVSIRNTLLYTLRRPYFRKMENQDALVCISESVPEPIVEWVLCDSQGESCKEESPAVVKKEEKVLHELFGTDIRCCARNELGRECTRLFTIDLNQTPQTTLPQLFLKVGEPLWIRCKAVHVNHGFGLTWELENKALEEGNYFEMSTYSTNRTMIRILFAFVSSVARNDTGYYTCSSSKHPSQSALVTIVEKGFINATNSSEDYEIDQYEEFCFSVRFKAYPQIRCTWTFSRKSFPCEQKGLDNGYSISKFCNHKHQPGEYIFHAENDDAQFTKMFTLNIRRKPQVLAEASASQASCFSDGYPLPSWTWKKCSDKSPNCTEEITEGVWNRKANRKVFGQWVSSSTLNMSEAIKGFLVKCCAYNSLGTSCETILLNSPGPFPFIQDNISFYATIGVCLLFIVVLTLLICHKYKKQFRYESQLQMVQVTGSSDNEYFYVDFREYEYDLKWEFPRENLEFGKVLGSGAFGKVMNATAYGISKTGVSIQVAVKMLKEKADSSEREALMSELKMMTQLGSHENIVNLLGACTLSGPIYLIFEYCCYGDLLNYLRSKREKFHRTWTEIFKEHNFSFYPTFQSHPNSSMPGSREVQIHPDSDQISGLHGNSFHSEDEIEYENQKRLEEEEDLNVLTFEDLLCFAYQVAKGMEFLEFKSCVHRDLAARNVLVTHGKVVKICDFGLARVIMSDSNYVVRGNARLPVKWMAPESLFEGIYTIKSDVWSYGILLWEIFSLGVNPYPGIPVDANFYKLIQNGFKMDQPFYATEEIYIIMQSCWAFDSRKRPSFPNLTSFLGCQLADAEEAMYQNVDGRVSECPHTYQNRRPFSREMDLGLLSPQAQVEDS

[3] = tested on: T2, Receptor-type tyrosine-protein kinase FLT3 (Homo sapiens), P36888 [D835Y]; experiment: as §1
T2 sequence (whole entry): T1 sequence (whole entry) with V835Y

[4] = tested on: T3, Receptor-type tyrosine-protein kinase FLT3 (Homo sapiens), P36888 [K663Q]; experiment: as §1
T3 sequence (whole entry): T1 sequence (whole entry) with K663Q, V835D

[5] = tested on: Receptor-type tyrosine-protein kinase FLT3 (Homo sapiens), P36888 [UNDEFINED MUTATION]; experiment: as §1

% of control [1]: 16% | % of control [2]: 3.2% | % of control [3]: 2.5% | % of control [4]: 13% | % of control [5]: 11%
Compound: CCc1ccccc1C(=O)Nc1n[nH]c2c(C)c(F)c(C3C(C#N)=C(C)N(C)C(C)=C3C#N)cc12 [BAY-3827]
